Article PMC2873968, “Novel protein kinase D inhibitors cause potent arrest in prostate cancer cell growth and motility” (BMC Chemical Biology, 2010)

Tests used:
PKCα = target: T1, PKCα (Homo sapiens, UniProt P17252); parameters: method as in PMID 18829454; settings: previously reported; cited from earlier work
T1 construct: purchased Cell Signaling Technology and Calbiochem

CAMKIIα = target: T2, CAMKIIα (Homo sapiens, UniProt Q9UQM7); parameters: method as in PMID 18829454; settings: previously reported; cited from earlier work
T2 construct: purchased Enzo Life Sciences

PC3 cells = test system: PC3 cells; parameters: method as in PMID 18829454; settings: 10 or 25 μM for six days; cited from earlier work
[1] = test system: protein kinase B (AKT/PKB); parameters: method as in PMID 18829454; settings: previously reported; cited from earlier work
AKT2 = AKT2 (Homo sapiens, UniProt P31751); assay: Kinase profiling, single-dose in vitro kinase assay (Caliper Life Sciences); settings: read-out: Average % Inhibition AKT2
CHK1 = CHK1 (Homo sapiens, UniProt O14757); assay: as above; settings: read-out: Average % Inhibition CHK1
FGFR1 = FGFR1 (Homo sapiens, UniProt P11362); assay: as above; settings: read-out: Average % Inhibition FGFR1
JNK2 = JNK2 (Homo sapiens, UniProt P45984); assay: as above; settings: read-out: Average % Inhibition JNK2
KDR = KDR (Homo sapiens, UniProt P35968); assay: as above; settings: read-out: Average % Inhibition KDR
MARK1 = MARK1 (Homo sapiens, UniProt Q9P0L2); assay: as above; settings: read-out: Average % Inhibition MARK1
p38a = p38a (Homo sapiens, UniProt Q16539); assay: as above; settings: read-out: Average % Inhibition p38a
PDK1 = PDK1 (Homo sapiens, UniProt O15530); assay: as above; settings: read-out: Average % Inhibition PDK1

Chain of MARK1 (Q9P0L2 whole entry): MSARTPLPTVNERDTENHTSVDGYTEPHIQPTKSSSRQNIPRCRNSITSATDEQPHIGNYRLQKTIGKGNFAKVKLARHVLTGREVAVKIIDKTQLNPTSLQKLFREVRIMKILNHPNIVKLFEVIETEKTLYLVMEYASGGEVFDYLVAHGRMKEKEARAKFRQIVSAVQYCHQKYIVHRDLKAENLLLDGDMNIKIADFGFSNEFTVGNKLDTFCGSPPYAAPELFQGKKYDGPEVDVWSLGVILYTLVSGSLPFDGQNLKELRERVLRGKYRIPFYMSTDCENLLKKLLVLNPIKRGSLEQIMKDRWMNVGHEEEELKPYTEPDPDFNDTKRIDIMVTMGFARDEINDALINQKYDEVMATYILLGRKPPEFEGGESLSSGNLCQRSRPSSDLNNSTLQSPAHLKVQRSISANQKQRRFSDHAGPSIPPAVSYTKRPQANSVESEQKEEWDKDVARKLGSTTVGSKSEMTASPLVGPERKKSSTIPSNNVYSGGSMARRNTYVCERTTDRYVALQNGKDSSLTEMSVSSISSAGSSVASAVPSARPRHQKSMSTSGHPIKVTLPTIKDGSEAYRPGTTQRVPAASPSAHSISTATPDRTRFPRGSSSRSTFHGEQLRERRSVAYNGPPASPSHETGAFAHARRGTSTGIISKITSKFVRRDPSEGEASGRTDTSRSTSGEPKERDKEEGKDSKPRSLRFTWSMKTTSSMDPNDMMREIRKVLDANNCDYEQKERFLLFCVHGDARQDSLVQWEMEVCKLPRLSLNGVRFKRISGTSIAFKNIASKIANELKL
Chain of JNK2 (P45984 whole entry): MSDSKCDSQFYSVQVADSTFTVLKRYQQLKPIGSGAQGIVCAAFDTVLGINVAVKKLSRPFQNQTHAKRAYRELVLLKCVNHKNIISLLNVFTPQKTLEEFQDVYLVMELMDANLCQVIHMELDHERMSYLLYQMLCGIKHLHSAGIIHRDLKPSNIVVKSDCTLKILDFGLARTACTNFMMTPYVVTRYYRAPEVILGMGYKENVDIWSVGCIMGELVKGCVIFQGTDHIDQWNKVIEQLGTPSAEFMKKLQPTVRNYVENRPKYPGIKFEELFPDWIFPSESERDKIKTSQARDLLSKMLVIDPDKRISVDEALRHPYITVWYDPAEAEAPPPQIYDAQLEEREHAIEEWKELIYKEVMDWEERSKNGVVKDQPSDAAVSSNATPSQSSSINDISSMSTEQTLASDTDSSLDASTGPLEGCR
Chain of AKT2 (P31751 whole entry): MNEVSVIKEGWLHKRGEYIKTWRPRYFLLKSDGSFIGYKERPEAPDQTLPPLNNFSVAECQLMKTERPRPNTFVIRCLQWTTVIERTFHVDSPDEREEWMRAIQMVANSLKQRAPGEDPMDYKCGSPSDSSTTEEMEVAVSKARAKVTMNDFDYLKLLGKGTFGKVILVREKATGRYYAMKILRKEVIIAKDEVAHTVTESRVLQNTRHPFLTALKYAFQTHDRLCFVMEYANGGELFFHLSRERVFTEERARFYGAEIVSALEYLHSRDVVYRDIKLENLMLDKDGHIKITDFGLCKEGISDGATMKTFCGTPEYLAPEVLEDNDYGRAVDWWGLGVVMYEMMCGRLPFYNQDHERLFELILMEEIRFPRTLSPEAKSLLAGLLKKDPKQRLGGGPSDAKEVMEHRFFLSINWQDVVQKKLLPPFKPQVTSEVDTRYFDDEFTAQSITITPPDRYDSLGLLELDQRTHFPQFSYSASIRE
Chain of FGFR1 (P11362 22-822): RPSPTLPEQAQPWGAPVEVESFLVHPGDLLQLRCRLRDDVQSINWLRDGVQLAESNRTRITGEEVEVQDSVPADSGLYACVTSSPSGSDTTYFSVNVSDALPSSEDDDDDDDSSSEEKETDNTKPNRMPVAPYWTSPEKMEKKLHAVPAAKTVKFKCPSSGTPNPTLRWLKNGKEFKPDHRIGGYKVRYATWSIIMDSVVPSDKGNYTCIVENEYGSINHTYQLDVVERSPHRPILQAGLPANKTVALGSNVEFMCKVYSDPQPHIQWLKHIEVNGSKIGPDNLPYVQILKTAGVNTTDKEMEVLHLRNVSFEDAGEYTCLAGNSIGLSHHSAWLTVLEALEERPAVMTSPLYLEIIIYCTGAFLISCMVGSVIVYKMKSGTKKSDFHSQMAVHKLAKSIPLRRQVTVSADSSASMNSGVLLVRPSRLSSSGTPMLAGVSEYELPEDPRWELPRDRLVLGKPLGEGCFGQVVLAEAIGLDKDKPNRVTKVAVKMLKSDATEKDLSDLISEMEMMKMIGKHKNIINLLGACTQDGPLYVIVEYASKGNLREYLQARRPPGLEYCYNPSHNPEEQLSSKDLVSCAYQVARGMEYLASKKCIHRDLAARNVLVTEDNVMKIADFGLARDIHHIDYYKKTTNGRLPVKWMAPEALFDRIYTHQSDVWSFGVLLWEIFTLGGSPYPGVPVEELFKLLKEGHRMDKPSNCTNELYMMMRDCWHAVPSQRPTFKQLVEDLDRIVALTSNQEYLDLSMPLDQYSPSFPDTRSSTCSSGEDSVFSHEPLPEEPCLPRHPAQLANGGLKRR
Chain of KDR (P35968 20-1356): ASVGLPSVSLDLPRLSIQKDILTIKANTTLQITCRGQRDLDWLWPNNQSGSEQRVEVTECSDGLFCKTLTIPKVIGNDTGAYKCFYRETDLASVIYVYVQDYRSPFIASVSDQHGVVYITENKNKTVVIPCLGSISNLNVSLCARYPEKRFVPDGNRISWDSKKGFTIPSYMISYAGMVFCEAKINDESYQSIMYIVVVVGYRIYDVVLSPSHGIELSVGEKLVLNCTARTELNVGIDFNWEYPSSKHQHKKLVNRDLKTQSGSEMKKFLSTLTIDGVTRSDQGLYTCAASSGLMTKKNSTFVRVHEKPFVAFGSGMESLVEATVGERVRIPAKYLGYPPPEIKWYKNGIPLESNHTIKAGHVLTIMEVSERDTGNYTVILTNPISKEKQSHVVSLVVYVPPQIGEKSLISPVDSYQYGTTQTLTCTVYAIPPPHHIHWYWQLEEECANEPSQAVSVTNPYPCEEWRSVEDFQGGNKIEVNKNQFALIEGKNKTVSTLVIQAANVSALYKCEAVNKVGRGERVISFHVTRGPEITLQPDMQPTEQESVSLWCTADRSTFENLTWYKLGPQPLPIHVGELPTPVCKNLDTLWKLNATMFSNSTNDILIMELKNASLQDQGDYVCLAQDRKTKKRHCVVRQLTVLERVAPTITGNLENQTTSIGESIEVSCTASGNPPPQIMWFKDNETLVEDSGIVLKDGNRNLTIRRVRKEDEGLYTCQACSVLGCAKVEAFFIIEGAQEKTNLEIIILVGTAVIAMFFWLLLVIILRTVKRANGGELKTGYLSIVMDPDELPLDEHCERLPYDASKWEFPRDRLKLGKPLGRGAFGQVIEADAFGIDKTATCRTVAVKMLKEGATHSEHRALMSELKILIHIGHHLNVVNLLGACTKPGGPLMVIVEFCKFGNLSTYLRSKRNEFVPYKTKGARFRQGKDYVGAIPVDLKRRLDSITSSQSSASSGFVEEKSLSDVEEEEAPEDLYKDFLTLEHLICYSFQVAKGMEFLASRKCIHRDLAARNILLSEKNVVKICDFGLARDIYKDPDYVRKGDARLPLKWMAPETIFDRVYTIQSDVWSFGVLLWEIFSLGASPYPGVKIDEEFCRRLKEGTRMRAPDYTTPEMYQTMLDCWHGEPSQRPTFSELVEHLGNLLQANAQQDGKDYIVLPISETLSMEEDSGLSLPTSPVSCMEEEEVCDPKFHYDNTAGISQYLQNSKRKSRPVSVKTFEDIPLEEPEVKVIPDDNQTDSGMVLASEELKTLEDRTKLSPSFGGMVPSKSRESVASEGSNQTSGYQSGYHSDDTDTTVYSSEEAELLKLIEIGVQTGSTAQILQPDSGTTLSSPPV
Chain of p38a (Q16539 whole entry): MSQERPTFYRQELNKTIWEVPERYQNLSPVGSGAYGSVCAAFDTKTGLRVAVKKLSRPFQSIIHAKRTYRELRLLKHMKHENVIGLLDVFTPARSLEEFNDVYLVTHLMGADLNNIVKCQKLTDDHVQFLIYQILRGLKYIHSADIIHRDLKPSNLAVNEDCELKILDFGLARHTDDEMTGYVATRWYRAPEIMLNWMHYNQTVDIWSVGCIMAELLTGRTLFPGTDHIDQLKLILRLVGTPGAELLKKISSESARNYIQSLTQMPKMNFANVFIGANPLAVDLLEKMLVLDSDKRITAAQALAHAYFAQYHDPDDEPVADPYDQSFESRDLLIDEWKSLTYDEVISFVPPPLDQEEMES
Chain of CHK1 (O14757 whole entry): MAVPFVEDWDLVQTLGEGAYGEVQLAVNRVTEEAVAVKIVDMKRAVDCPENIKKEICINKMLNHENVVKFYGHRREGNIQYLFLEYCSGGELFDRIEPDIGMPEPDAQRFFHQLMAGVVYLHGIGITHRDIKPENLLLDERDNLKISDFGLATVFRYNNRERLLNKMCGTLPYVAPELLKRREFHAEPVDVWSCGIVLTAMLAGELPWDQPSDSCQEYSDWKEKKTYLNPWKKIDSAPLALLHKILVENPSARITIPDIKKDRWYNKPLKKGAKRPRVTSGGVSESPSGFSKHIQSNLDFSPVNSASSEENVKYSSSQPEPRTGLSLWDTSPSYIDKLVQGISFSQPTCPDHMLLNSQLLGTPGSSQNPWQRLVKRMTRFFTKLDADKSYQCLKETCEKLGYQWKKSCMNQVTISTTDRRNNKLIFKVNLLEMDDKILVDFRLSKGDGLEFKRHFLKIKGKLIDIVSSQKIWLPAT

Which “inhibition of PKCα” value (PKCα) does the source give for `O=C1NCCCc2c1oc1ccc(O)cc21` [CID755673, 7-Hydroxy-2,3,4,5-tetrahydro-[1]benzoxolo[2,3-c]azepin-1-one] here?
The value was “did not inhibit”.

What about the “inhibition of CAMKIIα” value (CAMKIIα) of the same compound?
Its value is “did not inhibit”.

And the cell cycle arrest (PC3 cells)?
Its cell cycle arrest is “caused G2/M phase cell cycle arrest”.

And the “inhibition of protein kinase B (AKT/PKB)” value [1]?
Its value is “did not inhibit”.

And the inhibition at 10 µM (AKT2)?
The inhibition at 10 µM was 4%.

And the inhibition at 10 µM (CHK1)?
Its inhibition at 10 µM is 7%.

What about the inhibition at 10 µM (FGFR1) of the same compound?
Its inhibition at 10 µM is 16%.

What about the inhibition at 10 µM (JNK2) of the same compound?
Its inhibition at 10 µM is 36%.

What about the inhibition at 10 µM (KDR) of the same compound?
Its inhibition at 10 µM is 8%.

And the inhibition at 10 µM (MARK1)?
The inhibition at 10 µM was 12%.

And the inhibition at 10 µM (p38a)?
Its inhibition at 10 µM is 2%.

What about the inhibition at 10 µM (PDK1) of the same compound?
Its inhibition at 10 µM is 22%.
